# Target: T1, G protein-coupled receptor 88 (Homo sapiens, UniProt Q9GZN0)
# Assay: Modulator activity at GPR88 (unknown origin) expressed in cell membranes incubated for 1 hr by liquid scintillation counting based [35S]GTPgammaS binding assay
# Type: functional
# T1 sequence (Q9GZN0 whole entry): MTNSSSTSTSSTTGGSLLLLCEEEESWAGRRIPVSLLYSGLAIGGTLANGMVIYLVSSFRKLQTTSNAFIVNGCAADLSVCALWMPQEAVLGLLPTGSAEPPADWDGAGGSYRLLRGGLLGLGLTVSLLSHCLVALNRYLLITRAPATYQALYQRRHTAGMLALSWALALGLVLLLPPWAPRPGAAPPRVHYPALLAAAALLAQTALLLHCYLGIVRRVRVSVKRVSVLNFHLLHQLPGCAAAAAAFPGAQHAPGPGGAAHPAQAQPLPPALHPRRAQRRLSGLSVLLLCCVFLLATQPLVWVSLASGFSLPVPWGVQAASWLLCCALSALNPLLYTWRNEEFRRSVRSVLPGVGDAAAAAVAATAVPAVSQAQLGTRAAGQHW
row,SMILES,EC50
1,CC[C@H](NC(=O)[C@H]1C[C@@H]1c1ccccc1)c1ccc(-c2ccc(OC)cc2)cc1,≤ 0.13 µM
2,CCc1ccc(-c2ccc([C@H](CO)NC(=O)[C@H]3C[C@@H]3c3cccs3)c(OC)c2)cc1,≤ 0.13 µM
3,CCc1ccc(-c2ccc([C@H](CO)NC(=O)[C@H]3C[C@@H]3c3cccs3)cc2)cc1,≤ 0.13 µM

# Continued, values first:
row,EC50,SMILES
1,≤ 0.13 µM,CCCC(C)COc1ccc([C@H](CN2CCN(C)CC2)NC(=O)[C@H]2C[C@@H]2c2cccs2)cc1 (stereo partly drawn)
2,≤ 0.13 µM,CC[C@H](C)COc1ccc([C@H](CN)NC(=O)[C@H]2C[C@@H]2c2cccs2)cc1
3,≤ 0.13 µM,CC[C@H](C)COc1ccc([C@H](CN)NC(=O)[C@H]2C[C@@H]2c2cccs2)c(C)c1

# Target: T1, G protein-coupled receptor 88
# Assay: Modulator activity at GPR88 (unknown origin) incubated for 30 mins by cell based cAMP HTRF assay
# Type: functional
row,SMILES,EC50
1,Cc1ccc(-c2ccc([C@H](CO)NC(=O)[C@H]3C[C@@H]3c3cccs3)cc2)cc1,≤ 0.13 µM
2,CCCC#Cc1ccc([C@H](CO)NC(=O)[C@H]2C[C@@H]2c2cccs2)c(OC)c1,≤ 0.13 µM
3,CCC(CC)COc1ccc([C@H](CO)NC(=O)[C@H]2C[C@@H]2c2cccs2)c(C)c1,≤ 0.13 µM

# Next, values leading:
row,EC50,SMILES
1,≤ 0.13 µM,CC[C@H](C)COc1ccc([C@H](CN2CCN(C)CC2)NC(=O)[C@H]2C[C@@H]2c2cccs2)cc1
2,≤ 0.13 µM,CC[C@H](C)COc1ccc([C@H](CO)NC(=O)[C@H]2C[C@@H]2c2cccs2)c(C)c1
3,≤ 0.13 µM,CCCC(C)COc1ccc([C@H](CO)NC(=O)[C@H]2C[C@@H]2c2cccs2)c(C)c1 (stereo partly drawn)
4,≤ 0.13 µM,CCC(CC)COc1ccc([C@H](CO)NC(=O)[C@H]2C[C@@H]2c2cccs2)cc1
